In patent publication US4465843A, “Process for the preparation of derivatives of 2-pyrrole acetic acid with anti-inflammatory activity” (Laboratories Pharmedical SA, priority 1981, dated 1984) one finds ED50 data, which are given here for 5 compounds.

Like-named read-outs stand apart in the source and are kept apart here.

Test [1] relates to paw edema as induced by carrageenin. As to the kind of experiment: anti-inflammatory activity, paw edema induced by carrageenin in the female rat (Winter et al). In kind it is in vivo. Conditions: po.
Test [2] has as its system contorsions as induced by acetic acid. As to the kind of experiment: analgesic activity, contorsions induced by acetic acid by intraperitoneal route in the rat (Koster et al). The class given is in vivo. Conditions: ip.
Where [3] appears, read: anti-inflammatory activity, carrageenin paw edema, female rat, p.os, read-out: ED50.
Where [4] appears, read: analgesic activity, acetic acid contorsions (i.p.), rat, p.os, read-out: ED50.

The ED50 is the dose that gives a 50% effect, or the effect in half of the subjects. As for `Cc1cc(CC(=O)O)n(C)c1C(=O)c1ccc(Cl)cc1` [Example 2, acetic acid], the results for the 50% effective dose (ED50) in test [1] (setting [3]) and in test [2] (setting [4]) were 1.7 mg/kg and 2.5 mg/kg, respectively. `CC(=O)Oc1ccccc1C(=O)O` [acetyl salicylic acid, reference compound] displayed a 50% effective dose (ED50) in test [2] (Rattus norvegicus) of 110 mg/kg.

With `CCn1c(CC(=O)O)cc(C)c1C(=O)c1ccccc1` [Example 4], the ED50 is 48 mg/kg in test [1] (setting [3]) and 82 mg/kg in test [2] (setting [4]). The corresponding values for `CCn1c(CC(=O)O)cc(C)c1C(=O)c1ccc(Cl)cc1` [Example 3] are 21.2 mg/kg and 31 mg/kg.

In the case of `COc1ccc2c(c1)c(CC(=O)O)c(C)n2C(=O)c1ccc(Cl)cc1` [Indomethacin, reference compound], in test [1] (Rattus norvegicus), the median effective dose (ED50) is 2.85 mg/kg.
